Assay results: patent US6548043B1, “Measurement of gastric emptying” (Metabolic Solutions, Inc., priority 1999, dated 2003)

Assay: GMBT, influence of a promotility agent
Format: in vivo, human
Conditions: Cisapride 10 mg the evening before and one half hour before a 350 kcal muffin test meal
Method: An experiment was done to examine the ability of the GMBT to detect changes introduced by the promotility agent, Cisapride. Gastric emptying tests employing a 350 kcal muffin test meal were administered on two occasions within a one-week period. One test was conducted as a control. The other test was conducted after treatment with Cisapride. Cisapride (10 mg) was administered at 10:00 P.M. on the evening prior to the test and one half hour before administration of the muffin test meal. Gastric emptying results for the control meal were delayed relative to the meal administered with Cisapride.

In the case of `COc1cc(N)c(Cl)cc1C(=O)NC1CCN(CCCOc2ccc(F)cc2)CC1OC` (centres unmarked) [Cisapride], the “change in T½ versus control” value (p=0.05) is reported as “significant decrease” and the “change in Tlag versus control” value (p=0.21) is reported as “not significant”.
